# Data: US5888993A, “Vanadium compounds in the treatment of elevated blood sugar levels” (The University of British Columbia, priority 1997, dated 1999)
# “And” between values parts separate entries of the source, which are not always exact repeats. Equal values may be shown once.
# Experiments:
# [1] = log p (partition coefficient); assay type: physicochemical
# normal rats = assay: Prolonged administration in drinking water (77 days), normal (control) rats; assay type: in vivo, rat
# Experimental: (§1) BMOV was administered to normal and diabetic rats in drinking water.
# (§2) The study was composed of 4 groups of animals Control (8 animals), Control-Treated (11 animals), Diabetic (11 animals) and Diabetic-Treated (12 animals). The diabetic state was induced by injecting STZ at 60 mg/kg dissolved in 0.9% NaCl I.V. via the tail vein to anaesthetized rats. The two control groups were injected with 0.9% NaCl I.V. through the tail vein. The diabetic state was determined with a "Testape"™ test at 3 days post-injection and later confirmed with a glucometer test. Blood glucose and insulin assays were carried out post-injection over the course of the study. Treatment according to the invention was started 1 week after determination of the diabetic state.
# (§3) Treated diabetic animals received between 0.3 and 0.5 mmol/kg of the compound/day in drinking water over a 77 day period. Treated control animals received a slightly lower dose (0.2-0.3 mmol/day) over the same period. The concentration of BMOV in the drinking water was varied between 1.6 and 3.2 mM. The reason for the differing doses in the two sets of animals is that the two groups drank different amounts of water daily; it was difficult to attain the same dose in both groups.
# (§4) 1. As indicated above, 4 groups of animals were studied, but the diabetic-treated group was sub-divided to diabetic-treated responders (8 animals) and diabetic-treated non-responders (4 animals). Curve 1 is the control group, curve 2 the control-treated group, curve 3 the diabetic group, curve 4 is the diabetic-treated responders and curve 5 is the diabetic-treated non-responders. […] Treatment began with a […] solution of the compound. […] On day 24, the concentration was increased to 2.37 mM (0.7 mg/ml).
# diabetic rats [2] = assay: BMOV single oral gavage, STZ diabetic rats; assay type: in vivo, rat; conditions: 160 μmol/kg
# non diabetic rats = assay: Previous laboratory studies of BMOV in non diabetic rats; assay type: in vivo, rat; conditions: 0.75 mg/ml
# Experimental: (§5) 11 SHR and 12 WKY rats (all male) were procured at 4 weeks of age from Charles River, Canada. The animals were divided into four experimental groups: SHR (untreated n=5), SHRO (BMOV treated n=6), WKY (untreated n=8) and WKYO (BMOV treated n=4). Chronic BMOV treatment was commenced on the SHRO and WKYO groups at 5 weeks of age. The rats were given BMOV (0.75 mg/ml) ad libitum in the drinking water.
# diabetic rats [3] = assay: Blood glucose response after i.p. injection in STZ diabetic rats; assay type: in vivo, rat
# Experimental: Initial experiments were carried out to determine pharmacological effectiveness of BMOV. Using male rats, made diabetic by the injection of streptoxoticin (STZ) at a dose of 60 mg/kg i.v., BMOV was initially given by intraperitoneal (i.p.) injection as a suspension in 1% methyl cellulose.
# Two animals developed hypoglycemia.
# SHR rats = assay: Blood pressure reduction by BMOV, spontaneously hypertensive rats; assay type: in vivo, rat; conditions: SHRO, 0.75 mg/ml in drinking water
# Experimental: as §5
# (§6) Once at week 5 and then starting at week 8, weekly measurements of blood pressure were done on all groups for the next 3 weeks. Blood samples were also collected via the tail vein during the weeks mentioned above. These were centrifuged and plasma was collected for subsequent glucose and insulin analyses. Chronic blood pressure measurements were done on conscious rats, using the tail cuff method without external preheating. Initial experiments to validate the tail cuff method by comparing the readings obtained with it to those obtained by direct arterial cannulation were conducted.
# diabetic rats [4] = assay: Prolonged administration in drinking water (77 days), STZ diabetic rats; assay type: in vivo, rat
# Experimental: as §1, §2, §3, §4
# diabetic rats [5] = assay: BMOV in drinking water, STZ diabetic rats; assay type: in vivo, rat
# WKY rats = assay: Blood pressure study with BMOV, Wistar Kyoto rats; assay type: in vivo, rat; conditions: WKYO, 0.75 mg/ml in drinking water
# Experimental: as §5, §6
# [6] = control treated, week 6, mean ± S.E.M.
# [7] = diabetic-treated non-responders, pretreatment, mean ± S.E.M.
# [8] = diabetic-treated non-responders, week 6, mean ± S.E.M.
# [9] = diabetic-treated responders, pretreatment, mean ± S.E.M.
# [10] = diabetic-treated responders, week 6, mean ± S.E.M.
compound,measurement,setting,value
"Cc1occc(=O)c1[O-].Cc1occc(=O)c1[O-].[O]=[V+2] [BMOV, Bis(maltolato)oxovanadium(IV)]",log p,[1],0.12
same,"insulin vs control, in words",normal rats; control treated,significantly lower
same,fluid intake,"normal rats; control treated, day 77 (control 62.7±7.4)",33.6 ± 7.2 mL
same,Cholesterol,"normal rats; control treated, pretreatment (day before treatment started), mean ± S.E.M.",1.64 ± 0.08 mmol/L
same,Triglyceride,"normal rats; control treated, pretreatment, mean ± S.E.M.",1.21 ± 0.14 mmol/L
same,Cholesterol,normal rats; [6],1.60 ± 0.06 mmol/L
same,Triglyceride,normal rats; [6],2.04 ± 0.22 mmol/L
same,food intake,normal rats; control-treated (control 29±0.1),25.5±0.3 grams per day
same,weight gain,"normal rats; control-treated, 77 days, drinking water (control 250 g)",200 g
same,"fluid consumption vs all other groups, in words","normal rats; control-treated, by day 63",significant difference
same,"weight gain, in words","normal rats; control-treated, from day 56",significantly decreased weight gain
same,"food consumption vs all other groups, in words","normal rats; control-treated, from day 63 on",significant difference
same,rats responding with a decrease in blood glucose,diabetic rats [2],Six out of six
same,time of peak fall in blood glucose,diabetic rats [2],5 h
same,time for return of blood glucose to diabetic levels,diabetic rats [2]; usually,≤ 12 h
same,plasma insulin levels,non diabetic rats,sufficient to lower plasma insulin levels
same,animals that developed hypoglycemia,diabetic rats [3]; 15 mg/kg i.p.,Two animals
same,rats responding with a decrease in blood glucose,"diabetic rats [3]; 15 mg/kg i.p. (0.05 mmol/kg), suspension in 1% methyl cellulose",Nine out of the twelve
same,"development of high blood pressure, in words",SHR rats,prevent the development of high blood pressure
same,decrease in systolic blood pressure,SHR rats; tail cuff,25-30 mmHg
same,"weight, diabetic-treated groups vs all other groups","diabetic rats [4]; both diabetic-treated groups, by day 7",significant difference
same,"plasma triglyceride and cholesterol, in words",diabetic rats [4]; diabetic animals,restored to control values
same,fluid intake,diabetic rats [4]; diabetic treated (diabetic about 275 ml/rat),about 60 ml/rat
same,food intake,diabetic rats [4]; diabetic-treated (from greater than 50 grams per day),about 30 grams per day
same,"weight, non-responders vs other 4 groups","diabetic rats [4]; diabetic-treated non-responders, by day 28",significantly different from the other 4 groups
same,Cholesterol,diabetic rats [4]; [7],1.51 ± 0.07 mmol/L
same,Triglyceride,diabetic rats [4]; [7],1.85 ± 0.41 mmol/L
same,Cholesterol,diabetic rats [4]; [8],1.48 ± 0.09 mmol/L
same,Triglyceride,diabetic rats [4]; [8],2.31 ± 0.19 mmol/L
same,hypoglycemia,"diabetic rats [4]; diabetic-treated responders, before day 18, treatment withheld",developed in several animals
same,"blood glucose, in words","diabetic rats [4]; diabetic-treated responders, by day 14",euglycemic
same,"weight, responders vs diabetic group","diabetic rats [4]; diabetic-treated responders, by day 28",no longer a significant difference
same,Cholesterol,diabetic rats [4]; [9],1.67 ± 0.10 mmol/L
same,Triglyceride,diabetic rats [4]; [9],1.10 ± 0.09 mmol/L
same,Cholesterol,diabetic rats [4]; [10],1.58 ± 0.11 mmol/L
same,Triglyceride,diabetic rats [4]; [10],1.70 ± 0.18 mmol/L
same,weight gain,"diabetic rats [4]; diabetic-treated, 77 days, drinking water",140 g
same,"food consumption vs control, in words","diabetic rats [4]; diabetic-treated, at any time",no significant difference
same,Insulin values,"diabetic rats [4]; diabetic-treated, day 28 of BMOV study",22.0 ± 1.6 μU/ml
same,food intake,"diabetic rats [4]; diabetic-treated, day 77",28±1.6 grams per day
same,animals responding (blood glucose lowered),"diabetic rats [4]; diabetic-treated, drinking water",8 out of the 12 and eight of the twelve
same,"fluid consumption vs control, in words","diabetic rats [4]; diabetic-treated, throughout",no significant difference
same,blood glucose,"diabetic rats [4]; non-responders (four of the twelve rats), on any given day",6 to 30 mM
same,"blood glucose, in words","diabetic rats [4]; responders, by day 24",normal blood glucose
same,blood glucose,"diabetic rats [4]; responders, from day 7 onwards (from 20 mM)",less than 10 mM
same,cataracts,"diabetic rats [4]; treated animals not controlled by the drug, end of 77 days",One of the four
same,cataracts,"diabetic rats [4]; treated diabetic rats controlled by the drug, end of 77 days (untreated diabetic 5/11)",0/8
same,"water solubility, in words",Water solubility,quite water-soluble
same,water solubility,Water solubility; water,about 7 mM and ~2 mg/mL
same,fluid intake,diabetic rats [5]; 0.46-0.92 mmol/kg,decreased to normal
same,blood glucose reduction,"diabetic rats [5]; 0.46-0.92 mmol/kg (150-300 mg/kg), four diabetic rats",reduced blood glucose in four diabetic rats into the normal range
same,"systolic blood pressure, normotensive controls",WKY rats,without having any effect
